Assay results: US20240131004A1, “FUNCTIONALIZED 1,3-BENZENE DIOLS AND THEIR METHOD OF USE FOR THE TREATMENT OF INFLAMMATION AND PAIN” (KANNALIFE SCIENCES, INC., priority 2021, published 2024)

Assays:
[1] = system: NLRP3; assay: Neuritic NLRP3 immunoreactive spot area in hippocampal neurons, LPIA reversal paradigm; format: cell-based, rat; conditions: 1 nM LPIA, hippocampal cultures
From the text: Tissue was dissociated with a papain-based kit from Worthington Biochemical Corporation (Lakewood, NJ).
(§1) To assess all antibody-based assays, immunocytochemical methods were employed. The goals for these assays included: 1) to assess the immunoreactive area of our molecular targets (IL-1β, IL-6, GPR55, NLRPA3) with their respective primary antibodies and distinctively labeled secondary antibodies; and 2) to compare the relative responses in both neuronal cell bodies and neurites. Prior to fixation, growth medium was removed and the wells were rinsed one time with 100 μL of DPBS (37° C.). This warm rinse is particularly important to maintain structural stability of neurites. After removal of the DPBS, cultures were fixed for 20 min at room temperature with 50 μL/well of 3.5% formaldehyde (Sigma-Aldrich: 252549) in warm (37° C.) DPBS that contained 5.5 μg/mL of Hoechst 33342 dye (Invitrogen: H3570) to label cell nuclei. After removal of the fixative, the cultures were rinsed twice with 100 μL of DPBS and then a permeabilization/blocking buffer containing 5% normal goat serum and 0.3% triton-X100 in DPBS was added to the cultures for 10 min. After removal of the blocking buffer, the cultures were rinsed twice with 100 μL of DPBS and then primary antibodies were added for one-hour incubation at room temperature. Neurons were identified with antiserum to type III beta tubulin (tuj 1) to measure changes in all neuronal parameters. The primary antiserum employed was rabbit anti-rat obtained from Sigma-Aldrich (T2200) and used at 1:200 dilution. The secondary was an Alexa Fluor 488-conjugated Fab fragment of goat anti-rabbit IgG obtained from Life Technologies (A11070) used at 1:600.

[2] = system: interleukin-6; conditions: 1 nM LPIA, after one hour of incubation, DRG neurons
From the text: (§2) Because of the recognized importance of sensory neurons in DRG to transmitting peripheral nociception (Krames, 2014) and the reported accumulation of paclitaxel in DRG from models of CIPN (Duggett et al., 2016), the preparation of choice for the in vitro studies to study protection and anti-inflammation was dissociated cultures from rat DRG. DRG cultures derived from embryonic day 18 rats were employed as the primary assay system to study KLS-13019-properties. In brief, DRG were obtained commercially through Brain Bits (Springfield, IL) and cultures prepared with slight modifications to methods previously described (Brenneman et al., 2019). Tissue was dissociated with a papain-based kit from Worthington Biochemical Corporation (Lakewood, NJ). The DRG cells were plated at low density (10,000 cells/well) in a 96-well format and maintained in serum-free medium consisting of Neurobasal Medium supplemented with B27, GlutaMAX (Gibco) and 25 ng/ml Nerve Growth Factor. Poly-D-lysine coated plates (BD Biosciences, Franklin Lakes, NJ) were employed for this culture system. Prior to the initiation of experiments between days 5 and 9 in vitro, a complete change of medium was performed in a working volume of 100 μL.
as §1, with “The secondary was an Alexa Fluor 488-conjugated Fab fragment of goat anti-rabbit IgG obtained from Life Technologies (A11070) used at 1:600.” left out

[3] = system: GPR55; conditions: DRG neurons
From the text: as §2
as §1, with “The secondary was an Alexa Fluor 488-conjugated Fab fragment of goat anti-rabbit IgG obtained from Life Technologies (A11070) used at 1:600.” left out

[4] = system: interleukin-1β; conditions: 1 nM LPIA, after one hour of incubation, DRG neurons
From the text: as §2
as §1, with “The secondary was an Alexa Fluor 488-conjugated Fab fragment of goat anti-rabbit IgG obtained from Life Technologies (A11070) used at 1:600.” left out

[5] = system: GPR55; assay: Neuritic GPR55 immunoreactive area in DRG cultures, 6 h co-treatment with LPIA; format: cell-based, rat; conditions: 1 nM LPIA, 6 hours, DRG cultures
From the text: as §2
To assess all antibody-based assays, immunocytochemical methods were employed. The goals for these assays included: 1) to assess the immunoreactive area of our molecular targets (IL-1β, IL-6, GPR55, NLRPA3) with their respective primary antibodies and distinctively labeled secondary antibodies; and 2) to compare the relative responses in both neuronal cell bodies and neurites. Prior to fixation, growth medium was removed and the wells were rinsed one time with 100 μL of DPBS (37° C.). This warm rinse is particularly important to maintain structural stability of neurites. After removal of the DPBS, cultures were fixed for 20 min at room temperature with 50 μL/well of 3.5% formaldehyde (Sigma-Aldrich: 252549) in warm (37° C.) DPBS that contained 5.5 μg/mL of Hoechst 33342 dye (Invitrogen: H3570) to label cell nuclei. […]

[6] = system: GPR55; assay: Cell body GPR55 immunoreactive area in DRG neurons, paclitaxel reversal paradigm, high content imaging; format: cell-based, rat; conditions: 3 μM paclitaxel, DRG cultures
Method: (§3) The GPR55 antibody was obtained from abcam. […] The secondary antibodies were obtained from Life Technologies.
Responses of cell body GPR55 immunoreactive areas (μ^2) of neurons from dorsal root ganglion (DRG) cultures are shown in FIG. 2 after pretreatment with 3 μM paclitaxel for 8 hours followed by 16 hours treatment with various concentrations of KLS-13019. Reference lines are provided to depict the average cell body GPR55 area for control cultures (medium dash) and that of cultures pre-treated only with 3 μM paclitaxel (dash-dot-dash) for eight hours. […] Each value is the mean of 8 determinations. […] All assays were conducted by high content fluorescence imaging (Brenneman et al., 2018 and 2019).

[7] = system: dorsal root ganglion (DRG) cultures; assay: Alamar Blue cellular viability in DRG cultures, reversal of paclitaxel toxicity; format: cell-based, rat; conditions: 3 μM paclitaxel
Method: At the conclusion of each experiment, sister cultures to those assessed by image analysis were evaluated with either a fluorescent dye-based assays for neuronal viability (6-carboxyfluorescein diacetate, CFDA) or with viability dye Alamar Blue. The preferred dye was Alamar Blue as this assay of viability could be conducted and then the dye washed off the cultures for subsequent fixation and follow-up immunocytochemical assays. […] In addition, a portion of the reductive conversion of resazurin to the highly fluorescent resorufin in the Alamar Blue reagent is attributable to the action of mitochondrial reductases. Because of the need for enhanced sensitivity, the Alamar Blue assay was predominantly used for these studies. Similar results in assessing pharmacological responses were obtained with both assays (see Brenneman et al, 2019).
On every plate, wells without cells were used to provide a blank reading that was used to subtract background fluorescence. For the Alamar Blue viability assay, 10 ul of the dye was added directly to the culture well that contained 100 ul of nutrient medium (Ivanov et al., 2016). Incubation times with the dye ranged from 1-5 hrs., depending on the experimental goals. Fluorescence was measured at an excitation of 530 nm and an emission of 590 on a Cytofluor plate reader.
Referring to FIG. 1, cellular viability, as measured with the viability dye Alamar Blue, is shown with relative fluorescence units (RFU) in dorsal root ganglion (DRG) cultures after treatment with 3 μM paclitaxel for 8 hours followed by 16 hours treatment with various concentrations of KLS-13019. Reference lines are provided to depict the RFU levels for control cultures (medium dash) and cultures pre-treated only with 3 μM paclitaxel (dash-dot-dash) for eight hours. […] To confirm, all treated cultures were continuously exposed to paclitaxel throughout the 24-hour duration of the experiment. […] Each value is the mean of 6 determinations.

[8] = system: interleukin-6 (IL-6); assay: Interleukin-6 immunoreactive area in cell bodies and neurites of DRG neurons, paclitaxel reversal paradigm; format: cell-based, rat; conditions: 3 μM paclitaxel, DRG neurons
Method: as §3
(§4) Referring to FIG. 3, responses of interleukin-6 (IL-6) immunoreactive (IR) areas (μ^2) in cell bodies (open circles) and neurites (closed circles) of rat DRG neurons from dissociated cultures are shown after pretreatment with 3 μM paclitaxel for 8 hours followed by 16 hours treatment with various concentrations of KLS -13019. Reference lines are provided to depict the average cell body IL-6 area (medium dash) and neurites IL-6 (dash-dot-dash) from control cultures. The zero-concentration data point on both curves depicts values for cultures treated only with 3 μM paclitaxel. […] To confirm, all treated cultures were continuously exposed to paclitaxel throughout the 24-hour duration of the experiment. […] Each value is the mean of 8 determinations. […] All assays were conducted by high content fluorescence imaging (Brenneman et al., 2018 and 2019).

[9] = system: interleukin-1β (IL-1β); assay: Interleukin-1β immunoreactive area in cell bodies and neurites of DRG neurons, paclitaxel reversal paradigm; format: cell-based, rat; conditions: 3 μM paclitaxel, DRG neurons
Method: as §3
as §4, with “Responses” for “Referring to FIG. 3, responses”, “interleukin-1β (IL-1β)” for “interleukin-6 (IL-6)”, “shown in FIG. 4” for “shown”, “pre-treatment” for “pretreatment”, “KLS-13019.” for “KLS -13019.”, “IL-1β” for “IL-6”

Compound | Effect of LPIA on neuritic NLRP3 spot area [1] | Effect on neuritic IL-6 IR area [2] | Concentration producing a maximum effect on GPR55 IR area ([3]; preliminary concentration-effect studies) [nM] | Effect on GPR55 IR area ([3]; LPIA, after one hour of incubation) | Effect on neuritic IL-1β IR area [4] | Effect of LPIA on neuritic GPR55 area [5] | Effect of paclitaxel on cell body GPR55 immunoreactive area [6] | Effect of paclitaxel on cellular viability of DRG cultures [7] | Effect of paclitaxel on IL-6 IR area in cell bodies and neurites [8] | Effect of paclitaxel on IL-1β IR area in cell bodies and neurites [9]
lysophosphatidylinositol arachidonate [LPIA] | increased NLRP3 spot area | significant increases | 1 | increases in GPR55 IR area | significant increases | produced an increase in neuritic GPR55 |  |  |  | 
CC(=O)O[C@H]1C(=O)[C@@]2(C)[C@H]([C@H](OC(=O)c3ccccc3)[C@]3(O)C[C@H](OC(=O)[C@H](O)[C@@H](NC(=O)c4ccccc4)c4ccccc4)C(C)=C1C3(C)C)[C@]1(OC(C)=O)CO[C@@H]1C[C@@H]2O [paclitaxel, reference compound] |  |  |  |  |  |  | increases in GPR55 area | toxicity | increases in IL-6 (IR) area | increases in IL-1β (IR) area
